The values that follow are results of earlier work, collected in patent US9393184B2, “Oxychlorine oral rinse composition having enhanced oral-tissue compatibility for the destruction of malodorants, their putrefactive microbial sources and gum-disease pathogens and a method for the preparation thereof” (ProFresh Properties Inc., priority 2013, dated 2016).

Consider `O=C(O)O` [carbonic acid], for which the pKa is recorded as 6.1.
